The nature of data set [1]: Activity on Scopolamine-induced Amnesia (step-through passive avoidance). It is filed as in vivo, rat (Wistar strain, male). The following applies: for Number of Rats that Reached Standard Point / Number of Rats Tested: standard point 600 seconds. An excerpt: As the experimental device, a step-through type passive avoidance training box composed of a light room and a dark room (light room: 400×400×400 mm; dark room 200×150×200 mm) was used. In the acquisition trial where learning is made, rats put in the light room move to the dark room. Each time the rats entered the dark room, electric stimulation of 2 mA was given to four limbs of each rat for 3 seconds from grids on the floor.

A short description of data set [2]: Activity on Amnesia due to Damage of Basal Forebrain (kainic acid lesion, passive avoidance). It is filed as in vivo, rat (Wistar strain, male). The following applies: for Number of Rats that Reached Standard Point / Number of Rats Tested: standard point 600 seconds. How it is done:
As the test animals, 13 to 39 Wistar strain male rats (body weight: 250-300 g) were used for each group. Amnesia-inducing treatment was effected by damaging the basal forebrain through injection of 0.2 μg/μl kainic acid at the basal forebrain from both sides under anesthesia with pentobarbital-Na.
After the recovery period of about 10 days following the operation, the trial for acquiring learning (training) was performed in a similar manner using the same experimental device as in Experiment 2. After 24 hours, the test trial was carried out.
Measurement of the latent time was carried out in a similar manner as in Experiment 1. Test Compound B and idebenone were suspended in 0.3% CMC, and the suspension was administered twice 60 minutes prior to the training and 60 minutes prior to the test.
Alternatively, the suspension was administered for 9 consecutive days after the recovery period. In this case, Compound B was orally administered and idebenone was intraperiotoneally administered; and the training was conducted on day 8 and the test trial was conducted on day 9. […]

Another data set is described as follows: Acute Toxicity, mice. The following applies: in vivo; oral, mouse (male). How it is done: (§1) Acute toxicity test was carried out by orally administering Compound (I) used in the present invention to mice (male) and rats (male).
A short description of data set [3]: Activity on Electroconvulsive Shock-induced Amnesia (step-through passive avoidance, light-and-dark box). The following applies: for reaction latent time: Tables 2-2, 2-3 and 2-4, oral. The format is in vivo, mouse (dd strain, male). How it is done: The antiamnestic activity was measured by using the light-and-dark box method. Symbols of the test compounds correspond to said compounds (Table 1).
As the test animals, 14 to 15 dd strain male mice (body weight: 23-28 g) were used for each group. As the experimental device, a step-through type passive avoidance training box composed of a light room and a dark room (light room: 130×90×90 mm; dark room 180×90×90 mm) was used.
In the acquisition trial where learning takes place, mice put in the light room move to the dark room. Each time the mice entered the dark room, electric stimulation of 0.25 mA was given to four limbs of each mouse for 2 seconds from grids on the floor.
Amnesia-inducing treatment was performed by electroconvulsive shock (2,000 V, 25 mA, 0.2 seconds) immediately after completion of the acquisition trial. After 24 hours, the test trial was conducted to measure the length of time before the mice entered the dark room. This time period, termed the reaction latent time, was recorded. A reaction latent time longer than 600 seconds was recorded as 600 seconds.
A test compound was suspended in 0.3% sodium carboxymethyl cellulose (hereinafter referred to as "CMC"). That suspension and a control of 0.3% CMC without any test compound were respectively administered to the mice 60 minutes prior to each test trial.
The effect was evaluated by Student-t test to determine whether there was a significant difference in reaction latent time between the amnesia control group and the group administered with the test compound in the passive avoidance test trial.

The next data set is described as follows: Acute Toxicity, rats. The settings on record: in vivo; oral, rat (male). As for the experimental part: as §1
[4] abbreviates: idebenone intraperitoneal, imipramine oral.
The mark [5] stands for this setting: 2.5 mg/kg, administered for 9 days, intraperitoneal.
The mark [6] stands for this setting: 10 mg/kg, administered for 9 days, intraperitoneal.
[7] abbreviates: 2.5 mg/kg, administered for 9 days, oral.
Setting [8] is: 10 mg/kg, administered for 9 days, oral.

This is an account of results in patent publication US4851414A, “Anti-dementia agent” (Kyowa Hakko Kagyo Co., Ltd., priority 1987, dated 1989).

The LD50 is the dose at which mortality reaches 50%. High values mean lower toxicity, low ones greater toxicity.

With `COC1=C(OC)C(=O)C(CCCCCCCCCCO)=C(C)C1=O` [Idebenone, idebenone, reference compound], the “Test Trial Mean Reaction Latent Time” value in data set [1] (2.5 mg/kg, intraperitoneal) turned out to be 58.4 ± 19.7 s; in data set [1] (5 mg/kg, intraperitoneal), 110.6 ± 30.2 s; in data set [1] (10 mg/kg, intraperitoneal), 148.8 ± 60.2 s; in data set [2] (setting [5]), 382.8 ± 80.2 s; in data set [2] (setting [6]), 178.2 ± 68.2 s; in data set [2] (10 mg/kg, administered twice), 52.0 ± 22.1 s. Also, the “Test Trial Mean Reaction Latent Time” value in data set [2] (20 mg/kg, administered twice) stood at 15.2 ± 3.4 s; in data set [2] (40 mg/kg, administered twice) it was 27.7 ± 8.9 s. Further, the “Number of Rats that Reached Standard Point / Number of Rats Tested” value was 0/10 in data set [1] (2.5 mg/kg, intraperitoneal); 0/10 in data set [1] (5 mg/kg, intraperitoneal); 0/10 in data set [1] (10 mg/kg, intraperitoneal); 7/13 in data set [2] (setting [5]); 3/13 in data set [2] (setting [6]); 0/14 in data set [2] (10 mg/kg, administered twice). Also, the “Number of Rats that Reached Standard Point / Number of Rats Tested” value in data set [2] (20 mg/kg, administered twice) was 0/14; in data set [2] (40 mg/kg, administered twice), 0/14. Besides, the “antiamnestic activity” value in data set [1] (setting [4]) is recorded as “showed no antiamnestic activity”. Besides, the “improving effect” value is “apparent improving effect” in data set [2] (9 consecutive days, 2.5 mg/kg, intraperitoneal) and “showed no improving effect” in data set [2] (administered twice, 10 to 40 mg/kg).
Turning to `CCCCCC(=O)Nc1ccc(Cc2ccccn2)c([N+](=O)[O-])c1` [Compound D, α-(p-Hexanoylamino-o-nitrobenzyl)pyridine], the LD50 in “Acute Toxicity, mice” was over 1000 mg/kg; in the data set “Acute Toxicity, rats”, over 100 mg/kg. Further, the “reaction latent time” value in data set [3] is on record as “prolonged”.
For `CC(=O)Nc1ccc(Cc2ccccn2)c([N+](=O)[O-])c1` [Compound A, α-(p-Acetylamino-o-nitrobenzyl)pyridine] the same measures were 660 mg/kg, over 200 mg/kg and “prolonged”.
On to `CCCC(=O)Nc1ccc(Cc2ccccn2)c([N+](=O)[O-])c1` [Compound B, α-(p-Butyrylamino-o-nitrobenzyl)pyridine], for which the “Test Trial Mean Reaction Latent Time” value is 94.3 ± 30.3 s in data set [1] (2.5 mg/kg, oral); 148.9 ± 54.3 s in data set [1] (5 mg/kg, oral); 201.2 ± 55.5 s in data set [1] (10 mg/kg, oral); 172.4 ± 52.6 s in data set [1] (20 mg/kg, oral); 171.2 ± 52.5 s in data set [1] (40 mg/kg, oral); 243.2 ± 73.7 s in data set [2] (setting [7]). The “Test Trial Mean Reaction Latent Time” value in data set [2] (2.5 mg/kg, administered twice) worked out at 121.8 ± 36.5 s; in data set [2] (5 mg/kg, administered twice), 215.5 ± 60.0 s; in data set [2] (setting [8]) it was 259.0 ± 78.5 s; in data set [2] (10 mg/kg, administered twice), 191.2 ± 57.7 s; in data set [2] (20 mg/kg, administered twice), 209.2 ± 60.2 s; in data set [2] (40 mg/kg, administered twice), 163.0 ± 51.5 s. Further, the “Number of Rats that Reached Standard Point / Number of Rats Tested” value in data set [1] (2.5 mg/kg, oral) was 1/20; in data set [1] (5 mg/kg, oral) it was 3/17; in data set [1] (10 mg/kg, oral) it was 4/20; in data set [1] (20 mg/kg, oral), 2/17; in data set [1] (40 mg/kg, oral) it was 4/20; in data set [2] (setting [7]), 4/13. For the same molecule, the “Number of Rats that Reached Standard Point / Number of Rats Tested” value in data set [2] (2.5 mg/kg, administered twice) is 1/19; in data set [2] (5 mg/kg, administered twice) it was 5/19; in data set [2] (setting [8]) it was 5/13; in data set [2] (10 mg/kg, administered twice) it was 3/18; in data set [2] (20 mg/kg, administered twice), 4/18; in data set [2] (40 mg/kg, administered twice), 2/18. In addition, the “antiamnestic activity” value in data set [1] (oral, dose of 5 to 40 mg/kg) was “showed an antiamnestic activity”. Besides, the “improving activity” value in data set [2] (9 consecutive days, 10 mg/kg, oral) is on record as “significant (P<0.05) improving activity”. For the same molecule, the “activity of alleviating learning disturbance” value in data set [2] (administered twice, 2.5 mg/kg or more) is “showed an activity of alleviating learning disturbance”. Further, in data set [2] (rat, in vivo), the “improving activity in the learning-disturbed animal model” value is “apparent improving activity”. The LD50 in “Acute Toxicity, mice” was 1530 mg/kg; in the data set “Acute Toxicity, rats” it was over 850 mg/kg. In data set [3] (doses of 10, 40, 80 and 160 mg/kg, oral), the “reaction latent time compared with the amnestic control group” value is listed as “significantly prolonged”.
Take `CN(C)CCC=C1c2ccccc2CCc2ccccc21` [Amitriptyline, amitriptyline, reference compound]: in data set [3] (mouse, in vivo, po), the “ataxis in motor coordination, order of intensity” value (from here on “ataxis in motor coordination”) is given as “amitriptyline>desipramine>imipramine”.
In turn, `CCCCC(=O)Nc1ccc(Cc2ccccn2)c([N+](=O)[O-])c1` [Compound C, α-(p-Valerylamino-o-nitrobenzyl)pyridine] yielded an LD50 in the data set “Acute Toxicity, mice” of over 300 mg/kg. In addition, the “reaction latent time” value in data set [3] is reported as “prolonged”.
Turning to `CNCCCN1c2ccccc2CCc2ccccc21` [Desipramine, desipramine, reference compound], the “ataxis in motor coordination” value in data set [3] (Table 2-6, oral) is on record as “amitriptyline>desipramine>imipramine”.
Regarding `CCCCCCCCCCCCCC(=O)Nc1ccc(Cc2ccccn2)c([N+](=O)[O-])c1` [Compound G, α-(p-Myristylamino-o-nitrobenzyl)pyridine], the LD50 in “Acute Toxicity, mice” is over 1000 mg/kg; in “Acute Toxicity, rats” it was over 100 mg/kg. Further, the “reaction latent time” value in data set [3] is given as “prolonged”.
As to `CCCCCCCC(=O)Nc1ccc(Cc2ccccn2)c([N+](=O)[O-])c1` [Compound E, α-(p-Octanoylamino-o-nitrobenzyl)pyridine], the LD50 in “Acute Toxicity, mice” was over 1000 mg/kg; in “Acute Toxicity, rats”, over 100 mg/kg.
In the case of `CN(C)CCCN1c2ccccc2CCc2ccccc21` [Imipramine, imipramine], the “Test Trial Mean Reaction Latent Time” value in data set [1] (20 mg/kg, oral) came out at 110.4 ± 44.3 s; in data set [1] (40 mg/kg, oral), 186.6 ± 54.0 s. Also, the “Number of Rats that Reached Standard Point / Number of Rats Tested” value is recorded as 1/13 in data set [1] (20 mg/kg, oral) and 1/13 in data set [1] (40 mg/kg, oral). Further, the “antiamnestic activity” value in data set [1] (setting [4]) is “showed no antiamnestic activity”. Besides, in data set [3] (Table 2-6, oral), the “ataxis in motor coordination” value was “amitriptyline>desipramine>imipramine”.
On to `CCCCCCCCCC(=O)Nc1ccc(Cc2ccccn2)c([N+](=O)[O-])c1` [Compound F, α-(p-Decanoylamino-o-nitrobenzyl)pyridine], for which the LD50 was over 1000 mg/kg in “Acute Toxicity, mice” and over 100 mg/kg in the data set “Acute Toxicity, rats”.
